Values joined by “and” are separate entries in the source; they are usually repeats but may differ in a detail not shown here. Equal entries are not always repeated. Toxic doses and inconclusive results are not listed. Cut-off read from the data, not from the text of the source: active = T/C of 150% or more; inactive = T/C below 125%.
System: L1210 leukemia ip in BDF1 mice, survival T/C
Assay: NCI In Vivo Anticancer Drug Screen. Data for tumor model L1210 Leukemia (intraperitoneal) in B6D2F1 (BDF1) mice
Conditions: endpoint: mean survival time, higher = longer survival
Method in brief: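 Tumor cells were implanted, animals were treated, and survival was followed. The result divides the treated measurement by the vehicle-control measurement.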

[1] = dose: 100.0 mg/kg/injection, schedule: Q01DX009 (ip), vehicle: Klucel (hydroxypropylcellulose) (HPC)
[2] = dose: 100.0 mg/kg/injection, schedule: Q04DX003 (ip), vehicle: Klucel (hydroxypropylcellulose) (HPC)
[3] = dose: 200.0 mg/kg/injection, schedule: Q01DX009 (ip), vehicle: Klucel (hydroxypropylcellulose) (HPC)
[4] = dose: 200.0 mg/kg/injection, schedule: Q04DX003 (ip), vehicle: Klucel (hydroxypropylcellulose) (HPC)
[5] = dose: 400.0 mg/kg/injection, schedule: Q01DX009 (ip), vehicle: Klucel (hydroxypropylcellulose) (HPC)
[6] = dose: 400.0 mg/kg/injection, schedule: Q04DX003 (ip), vehicle: Klucel (hydroxypropylcellulose) (HPC)
[7] = dose: 100.0 mg/kg/injection, schedule: Q01DX009 (ip), vehicle: saline
[8] = dose: 200.0 mg/kg/injection, schedule: Q01DX009 (ip), vehicle: saline
[9] = dose: 100.0 mg/kg/injection, schedule: Q04DX002 (ip), vehicle: Klucel (hydroxypropylcellulose) (HPC)
[10] = dose: 200.0 mg/kg/injection, schedule: Q04DX002 (ip), vehicle: Klucel (hydroxypropylcellulose) (HPC)
[11] = dose: 400.0 mg/kg/injection, schedule: Q04DX002 (ip), vehicle: Klucel (hydroxypropylcellulose) (HPC)
[12] = dose: 100.0 mg/kg/injection, schedule: Q04DX003 (ip), vehicle: saline
[13] = dose: 200.0 mg/kg/injection, schedule: Q04DX003 (ip), vehicle: saline
[14] = dose: 400.0 mg/kg/injection, schedule: Q04DX003 (ip), vehicle: saline
[15] = dose: 50.0 mg/kg/injection, schedule: Q01DX009 (ip), vehicle: Klucel (hydroxypropylcellulose) (HPC)
[16] = dose: 100.0 mg/kg/injection, schedule: Q01DX001 (ip), vehicle: Klucel (hydroxypropylcellulose) (HPC)
[17] = dose: 200.0 mg/kg/injection, schedule: Q01DX001 (ip), vehicle: Klucel (hydroxypropylcellulose) (HPC)
[18] = dose: 400.0 mg/kg/injection, schedule: Q01DX001 (ip), vehicle: Klucel (hydroxypropylcellulose) (HPC)

Measured: T/C

CCOC(=O)CC(CC(=O)OCC)NC(=O)c1ccc(N(C)C=O)cc1
inactive: dose: 100.0 mg/kg/injection, schedule: Q01DX001 (ip), vehicle: other 100 % of control | dose: 200.0 mg/kg/injection, schedule: Q01DX001 (ip), vehicle: other 102 % of control | dose: 400.0 mg/kg/injection, schedule: Q01DX001 (ip), vehicle: other 97 % of control

Cc1cc(C)c(N(C)C(=O)CCC(=O)O)c(Br)c1
inactive: [1] 89 % of control | [2] 101 % of control | [3] 101 % of control | [4] 100 % of control | [5] 101 % of control | [6] 94 % of control

CS(=O)(=O)c1ccc(C(=N)N)cc1
inactive: [7] 93 % of control | [8] 97 % of control | dose: 400.0 mg/kg/injection, schedule: Q01DX009 (ip), vehicle: saline 95 % of control

O=C(SC(=S)NCCNC(=S)SC(=O)c1ccccc1)c1ccccc1
inactive: dose: 50.0 mg/kg/injection, schedule: Q04DX002 (ip), vehicle: saline with Tween-80 95 % of control | dose: 100.0 mg/kg/injection, schedule: Q04DX002 (ip), vehicle: saline with Tween-80 87 % of control | dose: 200.0 mg/kg/injection, schedule: Q04DX002 (ip), vehicle: saline with Tween-80 98 % of control

CCCCOCCOC(=O)CC(/C=C(/C)CC(C)(C)C)C(=O)OCCOCCCC (stereo not given)
inactive: dose: 222.0 mg/kg/injection, schedule: Q01DX Z (ip), vehicle: methylcellulose (MC) 101 % of control | dose: 333.0 mg/kg/injection, schedule: Q01DX Z (ip), vehicle: methylcellulose (MC) 108 % of control | dose: 500.0 mg/kg/injection, schedule: Q01DX Z (ip), vehicle: methylcellulose (MC) 96 % of control

COC(=O)c1cc(OC)nc(OC)c1
inactive: [2] 102 % of control | [4] 110 % of control | [6] 96 % of control

CCC(=O)Nc1ccccc1C
inactive: [9] 92 % of control | [10] 103 % of control | [11] 110 % of control

C=CC1CC(=O)N1C (stereo not given)
inactive: [12] 100 % of control | [13] 110 % of control | [14] 112 % of control

CC(C)=CC(=O)NC(=O)NS(=O)(=O)c1ccc(Cl)cc1
inactive: [15] 100 % of control | [1] 107 % of control | [2] 105 % of control | [3] 98 % of control | [4] 102 % of control | [6] 106 % of control

CC[N+](CC)(CC)CCCC[P+](CC)(CC)CC
inactive: dose: 12.0 mg/kg/injection, schedule: Q04DX003 (ip), vehicle: other 95 % of control | dose: 25.0 mg/kg/injection, schedule: Q04DX003 (ip), vehicle: other 90 % of control | dose: 50.0 mg/kg/injection, schedule: Q04DX003 (ip), vehicle: other 93 % of control

O=C1c2ccccc2C(=O)c2c(O)c(N3CCOCC3)cc(O)c21
inactive: dose: 0.25 mg/kg/injection, schedule: Q04DX003 (ip), vehicle: water 90 % of control | dose: 0.5 mg/kg/injection, schedule: Q04DX003 (ip), vehicle: water 102 % of control | dose: 1.0 mg/kg/injection, schedule: Q04DX003 (ip), vehicle: water 110 % of control | dose: 2.0 mg/kg/injection, schedule: Q04DX003 (ip), vehicle: water 100 % of control | dose: 4.0 mg/kg/injection, schedule: Q04DX003 (ip), vehicle: water 102 % of control | dose: 8.0 mg/kg/injection, schedule: Q04DX003 (ip), vehicle: water 100 % of control | dose: 16.0 mg/kg/injection, schedule: Q04DX003 (ip), vehicle: saline 102 % of control | dose: 16.0 mg/kg/injection, schedule: Q04DX003 (ip), vehicle: water 100 % of control | dose: 32.0 mg/kg/injection, schedule: Q04DX003 (ip), vehicle: saline 110 % of control | dose: 64.0 mg/kg/injection, schedule: Q04DX003 (ip), vehicle: saline 102 % of control

COc1ccc(/C=N/NC(=S)Nc2ccccc2)cc1OC
inactive: [1] 94 % of control and 100 % of control | [3] 89 % of control | [5] 96 % of control and 86 % of control

CC(=O)OCc1ccccn1
inactive: [7] 97 % of control | [12] 94 % of control | [8] 97 % of control | [13] 99 % of control | [14] 93 % of control

O=C(c1ccccc1)N(Nc1ccccc1)c1ccccc1
inactive: [15] 94 % of control | [1] 97 % of control | [2] 98 % of control | [3] 97 % of control | [4] 93 % of control | [5] 89 % of control | [6] 98 % of control

O=C1O/C(=C(\C(=O)O)c2ccccc2)C(O)=C1c1ccccc1
inactive: [1] 113 % of control | [2] 103 % of control | [3] 101 % of control | [4] 97 % of control | [5] 102 % of control | [6] 108 % of control

COc1cc(C=Nc2ccc(Oc3ccc(Cl)cc3)cc2)cc(OC)c1OC
inactive: [1] 102 % of control | [3] 96 % of control

C=CC/C(=C/CCC)CCC
inactive: dose: 50.0 mg/kg/injection, schedule: Q01DX009 (ip), vehicle: saline with Tween-80 95 % of control | dose: 100.0 mg/kg/injection, schedule: Q01DX009 (ip), vehicle: saline with Tween-80 100 % of control | dose: 200.0 mg/kg/injection, schedule: Q01DX009 (ip), vehicle: saline with Tween-80 100 % of control

O=C(/C=C(\c1ccccc1)c1ccc([N+](=O)[O-])cc1)Nc1ccc(S(=O)(=O)F)cc1
inactive: dose: 100.0 mg/kg/injection, schedule: Q04DX003 (ip), vehicle: saline with Tween-80 96 % of control | dose: 200.0 mg/kg/injection, schedule: Q04DX003 (ip), vehicle: saline with Tween-80 91 % of control | dose: 400.0 mg/kg/injection, schedule: Q04DX003 (ip), vehicle: saline with Tween-80 96 % of control

CC1=N/C(=N\c2nc3ccccc3[nH]2)NC(=O)CC1
inactive: dose: 75.0 mg/kg/injection, schedule: Q01DX001 (ip), vehicle: saline 101 % of control | dose: 150.0 mg/kg/injection, schedule: Q01DX001 (ip), vehicle: saline 93 % of control

NCCCCC(N)C(=O)O (stereo not given)
inactive: [16] 115 % of control | dose: 100.0 mg/kg/injection, schedule: Q01DX001 (ip), vehicle: saline 94 % of control | [17] 100 % of control | dose: 200.0 mg/kg/injection, schedule: Q01DX001 (ip), vehicle: saline 97 % of control | [18] 86 % of control | dose: 400.0 mg/kg/injection, schedule: Q01DX001 (ip), vehicle: saline 94 % of control

O=C(CCCCCCCCC(=O)c1ccc2ccccc2c1O)c1ccc2ccccc2c1O
inactive: [16] 87 % of control | [1] 94 % of control | [17] 89 % of control | [3] 91 % of control | [18] 105 % of control | [5] 96 % of control

CC(C)c1ccc(C(=O)C2CC2)cc1
inactive: dose: 25.0 mg/kg/injection, schedule: Q01DX009 (ip), vehicle: Klucel (hydroxypropylcellulose) (HPC) 93 % of control | [15] 101 % of control | [1] 93 % of control and 91 % of control | [2] 96 % of control | [4] 96 % of control | [6] 94 % of control

CCCCC(C)(C)COC(=O)Nc1ccccc1
inactive: dose: 100.0 mg/kg/injection, schedule: Q04DX003 (ip), vehicle: other 92 % of control | dose: 200.0 mg/kg/injection, schedule: Q04DX003 (ip), vehicle: other 104 % of control | dose: 400.0 mg/kg/injection, schedule: Q04DX003 (ip), vehicle: other 101 % of control

Cc1cccc(C)c1NC(=O)Oc1ccc2ccccc2c1
inactive: [1] 91 % of control | [2] 104 % of control | [3] 94 % of control | [4] 104 % of control | [5] 101 % of control | [6] 105 % of control

CSc1ccc(NC(N)=O)cc1
inactive: [9] 103 % of control | [10] 120 % of control | [11] 95 % of control

CCOC(=O)C(=CNc1cnc(SC)[nH]c1=O)C(=O)OCC
inactive: [12] 91 % of control | [13] 93 % of control | [14] 89 % of control

CN1CCCC1c1cccnc1 (stereo not given)
inactive: dose: 0.5 mg/kg/injection, schedule: Q01DX009 (ip), vehicle: saline 97 % of control | dose: 0.5 mg/kg/injection, schedule: Q01DX Z (ip), vehicle: saline 97 % of control | dose: 1.0 mg/kg/injection, schedule: Q01DX009 (ip), vehicle: saline 95 % of control and 87 % of control | dose: 1.0 mg/kg/injection, schedule: Q01DX Z (ip), vehicle: saline 94 % of control | dose: 2.0 mg/kg/injection, schedule: Q01DX Z (ip), vehicle: saline 95 % of control

— PubChem BioAssay AID248 (DTP/NCI, 2004)
